In patent US20090081717A1, “Compositions and Methods For Signal Generation” (priority 2007, published 2009):
Where two headings read alike, the source gives them in different places.

Experiments:
alkaline phosphatase = settings: 1×10^−12 moles alkaline phosphatase in 0.1 M Tris, pH 9.0, 45 sec at room temperature, measured 1 sec
Procedure: A substrate solution containing 0.8 mg/ml 3-indoxyl phosphate bis(2-amino-2-methyl-1,3-propanediol) salt (Biosynth International) and 0.4 mg/ml lucigenin (Sigma Aldrich) was prepared in 0.1 M Tris buffer, pH 9.0. 10 ul of the sample (blank (0.1 M Tris, pH 9.0 or 1×10^−12 moles alkaline phosphatase in 0.1 M Tris, pH 9.0) was added to plastic tubes. 50 ul of the substrate containing 0% DMSO, 0.1% DMSO (v/v), 1% DMSO) (v/v), 10% DMSO (v/v) and 20% DMSO (v/v) was added to respective tubes and water was added to the substrate in appropriate percentage as a control. The reaction was incubated for 45 sec at room temperature and chemiluminescence was measured for 1 sec using an Optocomp I (MGM) luminometer.

[1] = Chemiluminescence of indoxyl phosphate substrate solution with blank sample (no enzyme); assay type: biochemical; settings: blank sample 0.1 M Tris, pH 9.0, no enzyme

**Q.** Which results are given for CC(N)(CO)CO.CC(N)(CO)CO.O=P(O)(O)Oc1c[nH]c2ccccc12 [3-indoxyl phosphate bis(2-amino-2-methyl-1,3-propanediol) salt]?
**A.** Alkaline phosphatase chemiluminescence (alkaline phosphatase; substrate with 0 vol % DMSO): 895,068 Relative light unit; Alkaline phosphatase chemiluminescence (alkaline phosphatase; substrate with 0.1 vol % DMSO): 899,207 Relative light unit; Alkaline phosphatase chemiluminescence (alkaline phosphatase; substrate with 1 vol % DMSO): 1,101,369 Relative light unit; Alkaline phosphatase chemiluminescence (alkaline phosphatase; substrate with 10 vol % DMSO): 1,909,745 Relative light unit; Alkaline phosphatase chemiluminescence (alkaline phosphatase; substrate with 20 vol % DMSO): 2,375,681 Relative light unit; Blank chemiluminescence ([1]; substrate with 0 vol % DMSO): 472 Relative light units; Blank chemiluminescence ([1]; substrate with 0.1 vol % DMSO): 511 Relative light units; Blank chemiluminescence ([1]; substrate with 1 vol % DMSO): 569 Relative light units; Blank chemiluminescence ([1]; substrate with 10 vol % DMSO): 1214 Relative light units; Blank chemiluminescence ([1]; substrate with 20 vol % DMSO): 1917 Relative light units
